From US20070135485A1, “Novel mch receptor antagonists” (priority 2003, published 2007) come the findings set out here.

In general, Kb refers to the affinity of an antagonist, worked out from how it opposes an agonist. The term melting point denotes the temperature of the solid-liquid transition. Usually Ki stands for a measure of affinity in units of concentration, obtained from inhibition or displacement.

In the first data set the target is T1, human MCHR1 (Homo sapiens, UniProt Q99705).
T1 construct: The full-length cDNA for human MCHR1 was cloned; expressed in transfected cells; host or cells: AV12 cells previously transfected with the promiscuous G protein G(alpha)15; membranes
T1 sequence (Q99705 whole entry): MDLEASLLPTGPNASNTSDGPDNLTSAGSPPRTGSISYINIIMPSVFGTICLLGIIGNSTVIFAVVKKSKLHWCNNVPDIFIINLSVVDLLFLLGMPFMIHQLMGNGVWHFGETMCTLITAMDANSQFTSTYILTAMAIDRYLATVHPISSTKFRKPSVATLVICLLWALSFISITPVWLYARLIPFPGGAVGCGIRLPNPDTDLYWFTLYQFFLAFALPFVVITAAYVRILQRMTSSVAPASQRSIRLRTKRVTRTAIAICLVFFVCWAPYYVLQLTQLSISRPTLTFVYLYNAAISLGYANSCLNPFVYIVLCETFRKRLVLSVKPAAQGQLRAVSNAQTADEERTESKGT
Description: inhibition of MCH-stimulated GTPγ35S binding to clone 43 membranes (functional antagonism). The data set is classed as biochemical. Particulars: 40 nM MCH-stimulated GTPγ35S binding, Kb from IC50 by modified Cheng-Prusoff (Leff and Dougal), tested in duplicate. The method, then: (§1) The full-length cDNA for human MCHR1 was cloned from a human adult brain cDNA library (Edge Biosystems, Cat. 38356) by standard polymerase chain reaction (PCR) methodology employing the following primers: sense, 5′-GCCACCATGGACCT GGAAGCCTCGCTGC-3′; anti-sense, 5′-[…]-3′. The PCR reaction was performed in a final volume of 50 μl containing 5 μl of a 10× stock solution of PCR buffer, 1 μl of 10 mM dNTP mixture (200 μM final), 2 μl of 50 mM Mg(SO4) (2 mM final), 0.5 μl of 20 μM solutions of each primer (0.2 μM final), 5 μl of template cDNA containing 0.5 ng DNA, 0.5 μl of Platinum Taq High Fidelity DNA polymerase (Gibco Life Technologies) and 36 μl of H2O. PCR amplification was performed on a Perkin Elmer 9600 thermocycler. After denaturation for 90 sec at 94° C., the amplification sequence consisting of 94° C. for 25 sec, 55° C. for 25 sec and 72° C. for 2 min was repeated 30 times, followed by a final elongation step at 72° C. for 10 min. The desired PCR product (1.1 Kb) was confirmed by agarose gel electrophoresis and the band was extracted from the gel by Geneclean (Bio101) following the manufacturer's instructions. Following extraction, the cDNA fragment was cloned into pCR2.1-TOPO plasmid (Invitrogen) to confirm the identity and sequence.
In order to generate cell lines stably expressing MCHR1, the insert was then subcloned into the Xba I and Not I sites of pcDNA(+)-3.1-neomycin (Invitrogen). After purification by Qiagen Maxi-prep kit (QIAGEN, Inc.), the plasmid was transfected by Fugene 6 (Roche Applied Science) into AV12 cells that had been previously transfected with the promiscuous G protein G[…]15. The transfected cells were selected by G418 (800 μg/ml) for. 10-14 days and single colonies were isolated from culture plates. The G418-resistant colonies were further selected for MCHR1 expression by measuring MCH-stimulated Ca^2+ transients with a fluorometric imaging plate reader (FLIPR, Molecular Devices). […]
Functional antagonism of MCH activity is assessed by measuring the ability of test compound to inhibit MCH-stimulated binding of GTPγ^35S to clone 43 membranes. […]
(In general: GTPγS is a poorly hydrolysed GTP analogue; its binding reports G protein activation.)
`c1ccc(OCCSCc2nnc(-c3ccc4cc(CN5CCCCC5)ccc4c3)o2)cc1` [drawing 47]: the Kb turned out to be 58.4 nM.
On the same count and under the same terms, as for `CN(C)Cc1ccc2cc(-c3nnc(CSCCOc4ccccc4)o3)ccc2c1` [drawing 44], the figure is 11.8 nM; as for `c1ccc(OCCSCc2nnc(-c3ccc4cc(CN5CCCC5)ccc4c3)o2)cc1`, 7 nM.

Tested on in the next data set: not given
Test: not given
Details: not given
Take `CN(C)Cc1cc2ccc(-c3nnc(CSCCOc4ccccc4)o3)cc2[nH]1` [Example 4, dimethyl-{6-[5-(2-phenoxy-ethylsulfanylmethyl)-[1,3,4]oxadiazol-2-yl]-1H-indol-2-ylmethyl}-amine]: the melting point is 128 to 130 °C.
Still for that read-out and setting: as for `CN(C)Cc1cc2cc(-c3nnc(CSCCOc4ccccc4)o3)ccc2[nH]1.O=C(O)C(=O)O` [Example 3, dimethyl-{5-[5-(2-phenoxy-ethylsulfanylmethyl)-[1,3,4]oxadiazol-2-yl]-1H-indol-2-ylmethyl}-amine oxalate], the figure is 147 to 150 °C; as for `c1ccc(OCCSCc2nnc(-c3ccc4cc(CN5CCCCC5)ccc4c3)o2)cc1` [Example 13, 1 -{6-[5-(2-phenoxy-ethylsulfanylmethyl)-[1,3,4]oxadiazol-2-yl]-naphthalen-2-ylmethyl}-piperidine], 93 to 94 °C; as for `CN(C)Cc1ccc2cc(-c3nnc(CSCCOc4ccccc4)o3)ccc2c1` [Example 11, Dimethyl-{6-[5-(2-phenoxy-ethylsulfanylmethyl)-[1,3,4]oxadiazol-2-yl]-naphthalen-2-ylmethyl}-amine], 95 to 96 °C.
In the case of `CN(C)Cc1c[nH]c2ccc(-c3nnc(CSCCOc4ccccc4)o3)cc12.O=C(O)C(=O)O` [Example 6, dimethyl-{5-[5-(2-phenoxy-ethylsulfanylmethyl)-[1,3,4]oxadiazol-2-yl]-1H-indol-3-ylmethyl}-amine oxalate], the melting point lay in the range of 159 to 163 °C.
Still for that read-out and setting: as for `O=C(O)/C=C\C(=O)O.c1ccc(OCCSCc2nnc(-c3ccc4cc(CN5CCCC5)ccc4c3)o2)cc1` [Example 12, 2-(2-Phenoxy-ethylsulfanylmethyl)-5-(6-pyrrolidin-1-ylmethyl-naphthalen-2-yl)-[1,3,4]oxadiazole maleate], the figure is 133 to 135 °C; as for `CN(C)Cc1cn(C)c2ccc(-c3nnc(CSCCOc4ccccc4)o3)cc12.O=C(O)C(=O)O` [Example 8, dimethyl-{1-methyl-5-[5-(2-phenoxy-ethylsulfanylmethyl) -[1,3,4]oxadiazol-2-yl]-1H-indol-3-ylmethyl}-amine oxalate], 151 to 154 °C.
`CN(C)Cc1c[nH]c2cc(-c3nnc(CSCCOc4ccccc4)o3)ccc12.O=C(O)/C=C\C(=O)O` [Example 7, Dimethyl-{6-[5-(2-phenoxy-ethylsulfanylmethyl)-[1,3,4]oxadiazol-2-yl]-1H-indol-3-ylmethyl}-amine maleate]: the melting point lay in the range of 127 to 129 °C.
For `CN(C)Cc1cc2ccc(-c3nnc(CSCCOc4ccccc4)o3)cc2n1C.O=C(O)C(=O)O` [Example 5, dimethyl-{1-methyl-6-[5-(2-phenoxy-ethylsulfanylmethyl)-[1,3,4]oxadiazol-2-yl]-1H-indol-2-ylmethyl}-amine oxalate], the melting point was in the range of 125.5 to 129 °C.

The target of another data set is T1, human MCHR1. Description: competitive 125I-MCH binding assay with clone 43 membranes (SPA). The settings on record: 125I-MCH (100 pM) displacement, Ki from IC50 by Cheng-Prusoff, tested in duplicate. Here is the method: as §1
In order to generate cell lines stably expressing MCHR1, the insert was then subcloned into the Xba I and Not I sites of pcDNA(+)-3.1-neomycin (Invitrogen). After purification by Qiagen Maxi-prep kit (QIAGEN, Inc.), the plasmid was transfected by Fugene 6 (Roche Applied Science) into AV12 cells that had been previously transfected with the promiscuous G protein G[…]15. The transfected cells were selected by G418 (800 μg/ml) for. 10-14 days and single colonies were isolated from culture plates. The G418-resistant colonies were further selected for MCHR1 expression by measuring MCH-stimulated Ca^2+ transients with a fluorometric imaging plate reader (FLIPR, Molecular Devices).
Both the ^125I-MCH binding and functional GTPγ^35S binding assays employed membranes isolated from a clone designated as clone 43. Typically, cells from 20 confluent T225 flasks were processed by washing the monolayers in cold phosphate-buffered saline (PBS), scraping the cells into same and re-suspending the cell pellet in 35 ml of 250 mM Sucrose, 50 mM HEPES, pH 7.5, 1 mM MgCl2, 24 μg/ml DNase I, and protease inhibitors (1 Complete® tablet, per 50 ml of buffer prepared, Roche Diagnostics). After incubation on ice for 5 min, cells were disrupted with 20-25 strokes of a Teflon/Glass homogenizer attached to an overhead motorized stirrer, and the homogenate was centrifuged at 40,000 rpm in Beckman Type 70.1 Ti rotor. The pellets were re-suspended in 250 mM Sucrose, 50 mM HEPES, pH 7.5, 1.5 mM CaCl2, 1 mM MgSO4 and protease inhibitors by Teflon/Glass homogenization to achieve a protein concentration of ˜3-5 mg/ml (Pierce BCA assay with Bovine serum albumin as standard). Aliquots were stored at −70° C.
Binding of compounds to MCHR1 was assessed in a competitive binding assay employing ^125I-MCH, compound and clone 43 membranes. Briefly, assays are carried out in 96-well Costar 3632 white opaque plates in a total volume of 200 μl containing 25 mM HEPES, pH 7.5, 10 mM CaCl2, 2 mg/ml bovine serum albumin, 0.5% dimethyl sulfoxide (DMSO), 4 μg of clone 43 membranes, 100 pM ^125I-MCH (NEN), 1.0 mg of wheat germ agglutinin scintillation proximity assay beads (WGA-SPA beads, Amersham) and a graded dose of test compound. Non-specific binding is assessed in the presence of 1 μM unlabeled MCH. Bound ^125I-MCH is determined by placing sealed plates in a Microbeta Trilux (Wallac) and counting after a 5 hr delay.
IC50 values (defined as the concentration of test compound required to reduce specific binding of ^125I-MCH by 50%) are determined by fitting the concentration-response data to a 4-parameter model (max response, min response, Hill coefficient, IC50) using Excel. […]
The molecule `c1ccc(OCCSCc2nnc(-c3ccc4cc(CN5CCCCC5)ccc4c3)o2)cc1` [drawing 47] displayed a Ki of 17.6 nM.
The same measure, in the same setting: as for `CN(C)Cc1cn(C)c2ccc(-c3nnc(CSCCOc4ccccc4)o3)cc12`, the figure is 11100 nM; as for `O=C1c2cc(-c3nnc(CSCCOc4ccccc4)o3)ccc2CN1CCN1CCCCC1`, 2000 nM.
Still for that read-out and setting: as for `CN(C)Cc1cc2cc(-c3nnc(CSCCOc4ccccc4)o3)ccc2o1` [drawing 50], the figure is 235 nM; as for `CN(C)Cc1cc2ccc(-c3nnc(CSCCOc4ccccc4)o3)cc2o1` [drawing 41], 383 nM; as for `CN(C)Cc1cc2cc(-c3nnc(CSCCOc4ccccc4)o3)ccc2o1` [drawing 52], 153 nM.
In turn, `CN(C)Cc1ccc2cc(-c3nnc(CSCCOc4ccccc4)o3)ccc2c1` [drawing 44] yielded a Ki of 8.2 nM.
On the same count and under the same terms, for `O=C1c2ccc(-c3nnc(CSCCOc4ccccc4)o3)cc2CN1CCN1CCCCC1` the value was 1070 nM; for `CN(C)Cc1cc2cc(-c3nnc(CSCCOc4ccccc4)o3)ccc2[nH]1`, 190 nM; for `CN(C)Cc1cc2ccc(-c3nnc(CSCCOc4ccccc4)o3)cc2[nH]1` [drawing 54], 34.6 nM.
`c1ccc(OCCSCc2nnc(-c3ccc4cc(CN5CCCC5)ccc4c3)o2)cc1` showed a Ki of 7.3 nM.
`CN(C)Cc1c[nH]c2cc(-c3nnc(CSCCOc4ccccc4)o3)ccc12` had a Ki of 682 nM.
With `CN(C)Cc1cc2ccc(-c3nnc(CSCCOc4ccccc4)o3)cc2o1` [drawing 39], the affinity corresponds to a Ki of 372 nM.
